Data set [1] concerns Caco 2. Conditions: cited from earlier work.
For data set [2] the following is noted: cited from earlier work.
Data set [3] relates to CYP. To be noted: cited from earlier work.
Data set [4] has as its system CYP3A5. To be noted: cited from earlier work.
The conditions of data set [5]: cited from earlier work. The source holds these as a separate data set.
For data set [6] the following is noted: cited from earlier work. This is another data set of the same source.
Data set [7] has as its target CYP2C19 (Homo sapiens, UniProt P33261). To be noted: cited from earlier work; for Ki: read-out: Competitive inhibition constant, Ki (CYP2C19).
Data set [8] in a line: Caco-2 permeability (siponimod, reference compound). It is filed as in vitro ADME, human. To be noted: human, Caco-2; SimCYP V9 input of the siponimod model; read-out: Reference compound permeability. Here is the method: (§1) Siponimod absorption was predicted based on the permeability of Caco-2 cell (human colon carcinoma cell line) monolayers and considered to be complete (fraction absorbed [fa] = 1). Absorption rate constant (Ka) was calculated from the first clinical data to be 0.98/h. […] A volume of distribution of 2.12 L/kg was estimated based on preclinical data observation. The initial CL estimation of the siponimod model was based on human in vitro data from HLM and recombinant enzyme kinetics [unpublished data]. By using the in vivo clearance (CL/F) together with the fractional contribution of each CYP enzyme (phenotyping data) in the SimCYP retrograde calculator, the enzyme CLint values were estimated, resulting in an improved drug exposure prediction (Table 3).

The test system of data set [9] is Caco-2 cell (human colon carcinoma cell line) monolayers. The description is as above. Conditions: SimCYP V12 input of the siponimod model. In kind it is in vitro ADME. Here is the method: as §1

The values that follow come from paper PMC5849655 (European Journal of Clinical Pharmacology, 2017).

Molecules are shown by their SMILES. Like-named read-outs stand apart in the source and are kept apart here.

Sequence of CYP2C19 (P33261 whole entry): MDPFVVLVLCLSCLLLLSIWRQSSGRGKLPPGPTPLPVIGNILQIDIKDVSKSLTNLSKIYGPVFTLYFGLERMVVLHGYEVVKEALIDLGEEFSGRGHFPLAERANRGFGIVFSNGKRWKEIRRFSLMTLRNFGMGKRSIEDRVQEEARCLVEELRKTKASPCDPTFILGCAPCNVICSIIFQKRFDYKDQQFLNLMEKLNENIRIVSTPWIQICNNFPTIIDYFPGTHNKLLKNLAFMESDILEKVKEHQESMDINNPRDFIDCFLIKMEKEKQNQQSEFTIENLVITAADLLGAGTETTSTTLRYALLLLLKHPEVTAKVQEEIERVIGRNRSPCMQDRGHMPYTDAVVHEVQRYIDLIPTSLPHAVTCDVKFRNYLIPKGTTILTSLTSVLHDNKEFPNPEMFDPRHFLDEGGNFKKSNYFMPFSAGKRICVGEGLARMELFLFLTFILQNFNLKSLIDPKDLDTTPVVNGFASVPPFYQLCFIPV

For the compound `OC(Cn1cncn1)(Cn1cncn1)c1ccc(F)cc1F` [fluconazole], the “Caco 2 permeability, P Caco 2” value in [1] (ref SimCYP version 9) and in [1] (ref SimCYP version 16) was 29.8 10^-6cm/s each time. Moreover, the Compound type entry in data set [2] (ref SimCYP version 9) and in data set [2] (ref SimCYP version 16) was “monoprotic base” each time. For the same compound, the “Is the compound a CYP inducer?” value in data set [3] (ref SimCYP version 9) and in [3] (ref SimCYP version 16) was “no” in each case. Also, the “Is the compound a MBI?” value in data set [3] (ref SimCYP version 9) and in data set [3] (ref SimCYP version 16) was “no” each time. Further, the “Fraction unbound in vitro, fumic (CYP3A5)” value in [4] (ref SimCYP version 9) and in data set [4] (ref SimCYP version 16) was 1 in each case. Besides, the “Main plasma binding protein” value in data set [5] (ref SimCYP version 9) and in [5] (ref SimCYP version 16) was “HSA” throughout. Moreover, the “In vivo po clearance, CLpo” value in data set [6] (ref SimCYP version 9) is on record as 1.5 L/h. The “Renal clearance in a 20-30 yr healthy male, CLR” value in data set [6] (ref SimCYP version 9) was 0.865 L/h; in [6] (ref SimCYP version 16) it was 0.700 L/h. Further, the “Volume of distribution, Vss” value in data set [6] (ref SimCYP version 9) was 0.57 L/kg; in data set [6] (ref SimCYP version 16), 0.748 L/kg. Moreover, the “In vivo iv clearance, CLiv” value in [6] (ref SimCYP version 16) was 1.01 L/h; in [6] (used in the V9 model, ref SimCYP V7) it was 1.3 (SimCYP V7) L/h. The “Fraction unbound in vitro, fumic (CYP2C19)” value in data set [7] (ref SimCYP version 9) and in data set [7] (ref SimCYP version 16) was 1 throughout. Also, the Ki in data set [7] (ref SimCYP version 9) and in [7] (ref SimCYP version 16) was 2 µM throughout.

On to `CC(C)NCC(O)COc1cccc2ccccc12` (stereo not shown) [Propranolol, reference compound], for which, in data set [8], the Papp was 5.33 ×10⁻⁶ cm/s. Besides, in [9], the Reference compound permeability result was “Propranolol 5.33 10^-6cm/s”.
